Test results as given in patent US7888339B2, “2-methylene-20(21)-dehydro-19-nor-vitamin D analogs” (Wisconsin Alumni Research Foundation, priority 2008, dated 2011).

Key:
[1] = tested on: HL-60 cells; experiment: HL-60 cell differentiation (nitro blue tetrazolium reduction); type: cell-based, human; settings: for EC50: HL-60 cells into monocytes, FIG. 2
Method: The study drugs were dissolved in ethanol and the concentrations determined using UV spectrophotometry. Serial dilutions were prepared so that a range of drug concentrations could be tested without changing the final concentration of ethanol (≦0.2%) present in the cell cultures.
Human promyelocytic leukemia (HL60) cells were grown in RPMI-1640 medium containing 10% fetal bovine serum. The cells were incubated at 37° C. in the presence of 5% CO2.
HL60 cells were plated at 1.2×10^5 cells/ml. Eighteen hours after plating, cells in duplicate were treated with drug. Four days later, the cells were harvested and a nitro blue tetrazolium reduction assay was performed (Collins et al., 1979; J. Exp. Med. 149:969-974). The percentage of differentiated cells was determined by counting a total of 200 cells and recording the number that contained intracellular black-blue formazan deposits. Verification of differentiation to monocytic cells was determined by measuring phagocytic activity (data not shown).

[2] = tested on: intestinal calcium transport; experiment: Intestinal calcium transport (everted gut sac method) in vitamin D-deficient rats; type: in vivo, rat; settings: FIG. 5; for intestinal calcium transport: 260 pmol/day, ip, 4 consecutive days, everted gut sac
Method: (§1) Male, weanling Sprague-Dawley rats were placed on Diet 11 (0.47% Ca) diet+AEK oil for one week followed by Diet 11 (0.02% Ca)+AEK oil for 3 weeks. The rats were then switched to a diet containing 0.47% Ca for one week followed by two weeks on a diet containing 0.02% Ca. Dose administration began during the last week on 0.02% calcium diet. Four consecutive ip doses were given approximately 24 hours apart. Twenty-four hours after the last dose, blood was collected from the severed neck and the concentration of serum calcium determined as a measure of bone calcium mobilization. The first 10 cm of the intestine was also collected for intestinal calcium transport analysis using the everted gut sac method.

[3] = tested on: 24-hydroxylase (24Ohase) gene promoter in ROS 17/2.8 (bone) cells; experiment: In vitro transcription assay (24-hydroxylase gene promoter, luciferase reporter); type: cell-based; settings: ROS 17/2.8 cells, 24-hydroxylase promoter-luciferase; FIG. 3; read-out: EC50, transcriptional activity in bone cells
Method: Transcription activity was measured in ROS 17/2.8 (bone) cells that were stably transfected with a 24-hydroxylase (24Ohase) gene promoter upstream of a luciferase reporter gene (Arbour et al., 1998). Cells were given a range of doses. Sixteen hours after dosing the cells were harvested and luciferase activities were measured using a luminometer.
RLU=relative luciferase units.

[4] = tested on: bone calcium mobilization; experiment: Bone calcium mobilization (serum calcium) in vitamin D-deficient rats; type: in vivo, rat; settings: FIG. 4; for mobilization of bone calcium (serum calcium): ip, 4 consecutive days, rats on 0.02% Ca diet
Method: as §1

[5] = biological target: T1, full-length recombinant rat vitamin D receptor (Rattus norvegicus, UniProt P13053); experiment: Vitamin D receptor competitive binding with [3H]-1,25(OH)2D3; settings: FIG. 1
T1 construct: Full-length recombinant rat receptor was expressed in E. coli; histidine tag (C); made in house; host or cells: E. coli BL21 (DE3) Codon Plus RIL
T1 sequence (P13053 1-423): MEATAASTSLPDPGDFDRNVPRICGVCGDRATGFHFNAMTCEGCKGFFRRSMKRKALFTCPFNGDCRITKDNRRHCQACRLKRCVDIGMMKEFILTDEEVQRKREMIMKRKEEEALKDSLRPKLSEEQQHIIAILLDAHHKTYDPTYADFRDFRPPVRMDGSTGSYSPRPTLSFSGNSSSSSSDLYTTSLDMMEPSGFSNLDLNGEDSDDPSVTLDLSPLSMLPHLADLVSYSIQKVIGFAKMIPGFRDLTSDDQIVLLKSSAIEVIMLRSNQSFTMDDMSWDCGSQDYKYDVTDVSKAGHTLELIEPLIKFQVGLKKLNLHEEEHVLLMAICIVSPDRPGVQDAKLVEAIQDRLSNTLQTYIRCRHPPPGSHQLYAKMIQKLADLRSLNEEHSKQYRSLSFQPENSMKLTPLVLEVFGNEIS
Method: Full-length recombinant rat receptor was expressed in E. coli BL21 (DE3) Codon Plus RIL cells and purified to homogeneity using two different column chromatography systems. The first system was a nickel affinity resin that utilizes the C-terminal histidine tag on this protein. The protein that was eluted from this resin was further purified using ion exchange chromatography (S-Sepharose Fast Flow). Aliquots of the purified protein were quick frozen in liquid nitrogen and stored at −80° C. until use. For use in binding assays, the protein was diluted in TEDK50 (50 mM Tris, 1.5 mM EDTA, pH7.4, 5 mM DTT, 150 mM KCl) with 0.1% Chaps detergent. The receptor protein and ligand concentration were optimized such that no more than 20% of the added radiolabeled ligand was bound to the receptor.
Radiolabeled and unlabeled ligands were added to 100 mcl of the diluted protein at a final ethanol concentration of ≦10%, mixed and incubated overnight on ice to reach binding equilibrium. The following day, 100 mcl of hydroxylapatite slurry (50%) was added to each tube and mixed at 10-minute intervals for 30 minutes. The hydroxylapaptite was collected by centrifugation and then washed three times with Tris-EDTA buffer (50 mM Tris, 1.5 mM EDTA, pH 7.4) containing 0.5% Titron X-100. […] Total binding was determined from the tubes containing only radiolabeled ligand.

| SMILES | EC50 [1] [nM] | intestinal calcium transport [2] | EC50 [3] [nM] | mobilization of bone calcium (serum calcium) ([4]; 260 pmol/day) | EC50 ([1]; Homo sapiens) [nM] | potency on HL-60 cell differentiation relative to 1,25(OH)2D3 ([1]; compared to 1,25(OH)2D3) [times] | intestinal calcium transport activity compared to 1,25(OH)2D3 ([2]; in words) | Ki ([5]; full-length recombinant rat VDR, read-out: Ki, competition with [3H]-1,25(OH)2D3 for binding to the vitamin D receptor) [nM] | VDR binding affinity compared to 1,25(OH)2D3 ([5]; in words) | mobilization of bone calcium (serum calcium) ([4]; 2340 pmol/day) | bone calcium mobilization activity compared to 1,25(OH)2D3 ([4]; in words) |
| --- | --- | --- | --- | --- | --- | --- | --- | --- | --- | --- | --- |
| C=C1/C(=C\C=C2/CCC[C@]3(C)[C@@H]([C@H](C)CCCC(C)(C)O)CC[C@@H]23)C[C@@H](O)C[C@@H]1O [1,25(OH)2D3, 1α,25-dihydroxyvitamin D3, reference compound] | 2 | significant increase | 0.3 | increased serum calcium levels | – | – | – | – | – | – | – |
| C=C1[C@H](O)CC(=C/C=C2\CCC[C@]3(C)[C@@H](C(=C)CCCC(C)(C)O)CC[C@@H]23)C[C@H]1O [Vit III 20-21, 2-methylene-20(21)-dehydro-19-nor-1α,25-dihydroxyvitamin D3] | – | promotes intestinal calcium transport | 2 | did not result in mobilization of bone calcium | 0.7 | 3 to 4 | about the same activity | 0.1 | same affinity | substantial effect | less bone calcium mobilization activity |
